# Read-outs that look alike come from different tables or passages of the source.
# Assays:
# [1] = Metabolite identification and relative exposure in rat plasma and urine (UHPLC-QTOF MS/MS); type: in vivo, Sprague Dawley rats; conditions: for Source P (detected in plasma): rat plasma after single oral dose of 50 mg/kg R14; for Source U (detected in urine): rat urine 0-24 h after single oral dose of 50 mg/kg R14; for Cumulative excretion in 24 h urine as fraction of total amount of R14 and its metabolites: rat urine 0-24 h, peak area x urine volume
# Procedure: (§1) For the oral pharmacokinetics of R14, rats were fasted overnight and 4 h post-administration of 50 mg/kg oral dose of R14, with free access to water in metabolic cages. Serial blood samples (0.15 mL each) were collected from the cannulated jugular vein into heparin-coating tubes before dosing and at 5 min, 15 min, 30 min, 45 min, 1 h, 2 h, 3 h, 4 h, 6 h, 8 h, 10 h, and 24 h time points post dose. Plasma samples were separated immediately by centrifugation of the blood samples at 13,000 rpm for 3 min. For R14 quantification, 10 μL plasma aliquots were mixed with 30 μL of a stabilizing derivatization solution (0.1 M citric acid and 0.1 M sodium sulfite) and stored at −80 °C for analysis by UHPLC-MS/MS. For metabolite identification, 20 μL plasma aliquots were mixed with 80 μL acetonitrile containing 0.5% formic acid and stored at −80 °C for UHPLC-QTOF MS/MS analysis. Urine samples were collected over 0–24 h and stored at −80 °C.
# Twenty microliters of urine were mixed with 80 µL of methanol containing 0.5% formic acid, vortexed for 2 min, and centrifuged for 20 min. An 80 µL Aliquot of the supernatant was transferred to a sample vial for metabolite identification using UHPLC-QTOF MS/MS.
# Samples from in vivo pharmacokinetic studies, in vitro blood stability studies, and in vitro hepatic microsome studies were pretreated at the time of collection. Before analysis, the samples were thawed at room temperature, vortexed for 2 min, and centrifuged at 14,000 rpm for 20 min. An 80 µL aliquot of the supernatant was transferred to a sample vial for UHPLC-QTOF MS/MS analysis.
# Metabolite identification was performed on a UHPLC-X500B QTOF MS/MS (SCIEX, Framingham, MA, USA) equipped with a Synergi Fusion-RP column (4 µm, 150 × 2 mm, 80 Å, Phenomenex, Torrance, CA, USA). The mobile phases were water with 0.1% formic acid (A) and methanol with 0.1% formic acid (B), delivered at a flow rate of 0.4 mL/min. The autosampler and oven temperatures were set at 10 °C and 30 °C, respectively. The running time was 30 min. The gradient elution was as follows: 10% B for 0.5 min; increased to 70% over 20 min; then to 95% over 2 min; held at 95% for 5 min; returned to 10% in 0.5 min; and equilibrated for 2 min.
# The QTOF MS/MS was operated In positive ion mode. Data were acquired in Information-dependent-acquisition (IDA) mode, starting with a TOF MS survey scan to detect precursor ions, followed by MS/MS scans of the top 10 most intense ions (intensity > 200 counts/s). TOF MS was set to scan m/z 200–700 with a 0.1 s accumulation time, while TOF MS/MS scanned m/z 50–700 with a 0.04 s accumulation time. The source temperature and spray voltage were set at 500 °C, and 5000 v, respectively. Curtain gas and collision gas (CAD) were set at 30 and 9 psi, while nebulizer gas (gas 1) and heater gas (gas 2) were set at 55 and 60 psi, respectively. The declustering potential (DP) was 50 V. Collision energy (CE) were 10 v for TOF MS and 35 v (±15 v spread) for TOF MS/MS. Data were acquired using SCIEX OS software 1.6.1, and processed on SCIEX OS software 3.1.0.
# To elucidate the metabolic pathways and identify unknown metabolites of R14, we employed a multi-step strategy. First, MS/MS fragmentation analysis was performed to characterize the fragmentation pattern of R14 and identify its key fragment ions, which served as references for metabolite identification. Next, based on the chemical structure of R14, potential biotransformation pathways mediated by hepatic cytochrome P450 enzymes were predicted. These predicted metabolites were then screened in urine samples collected during in vivo pharmacokinetic studies to identify excreted metabolites. Metabolites detected in urine were subsequently cross-verified in plasma samples from the same in vivo studies. If verification failed or additional metabolites were suspected, the analysis reverted to the initial fragmentation step to identify downstream or daughter metabolites. […]
# [2] = R14 incubation in rat whole blood; type: in vitro ADME; conditions: R14 10 µg/mL, room temperature, 3 days
# Procedure: Previously, we observed the complete disappearance of R14 from mouse whole blood samples after being stored for 10 days in a −70 °C freezer, raising concerns about its stability under typical storage conditions. To further investigate the degradation and potential metabolic transformation of R14 in whole blood, we spiked rat whole blood with R14 (10 µg/mL) and left it at room temperature for 3 days. Room temperature incubation allows for ongoing enzymatic and non-enzymatic processes, providing insight into R14’s metabolic stability and degradation pathways under physiologically relevant but uncontrolled conditions. After incubation, a 4X volume of methanol containing 0.5% formic acid was added to the samples, followed by vortexing for 3 min and centrifugation to obtain supernatant prior to metabolite identification using the UHPLC coupled with quadrupole time-of-flight tandem mass spectrometry (UHPLC-QTOF MS/MS).
# Samples from in vivo pharmacokinetic studies, in vitro blood stability studies, and in vitro hepatic microsome studies were pretreated at the time of collection. Before analysis, the samples were thawed at room temperature, vortexed for 2 min, and centrifuged at 14,000 rpm for 20 min. An 80 µL aliquot of the supernatant was transferred to a sample vial for UHPLC-QTOF MS/MS analysis. […]
# [3] = cited from earlier work
# Caco-2 cell monolayer = assay: R14 permeability in the Caco-2 cell culture model; type: in vitro ADME; conditions: R14 10 µM
# Procedure: (§2) The permeability of R14 was assessed using the Caco-2 cell monolayer model, following the protocol by Liu and Hu (Liu 2002). Caco-2 cells (2.5 × 10^5 cells per insert; 4.2 cm^2 area, 3 μm pore size) were seeded and cultured at 37 °C with 90% humidity and 5% CO2 for 19–22 days. Monolayer integrity was evaluated using transepithelial electrical resistance (TEER) measurements with a Millicell ERS-2 system. Only monolayers with TEER values between 500 and 750 Ω·cm^2 were used.
# (§3) Hank’s Balanced Salt Solution (HBSS), supplemented with NaHCO3 (0.35 g/L), HEPES (5.96 g/L), and glucose (3.5 g/L), adjusted to the desired pH, was used as the transport medium. Cells from passages 41–49 were used.
# (§4) After confirming TEER, R14 working solution (10 µM) was added to either the apical or basolateral side of the insert, designating that side as the donor compartment, while the opposite side served as the receiver compartment. Samples (200 µL) were collected from both the apical (A) and basolateral (B) sides at 0, 0.5, 1, 2, and 4 h. The removed volume was immediately replaced with either fresh R14 working solution (on the donor side) or fresh buffer (on the receiver side) to maintain consistent volume and drug concentration throughout the experiment.
# (§5) For analysis, 100 µL of acetonitrile containing 0.6% formic acid and internal standard was added to each collected sample. After vortexing and centrifugation, the supernatant was analyzed using UHPLC-MS/MS for R14 quantification.
# (§6) The apparent permeability coefficient (P, cm/s) was calculated using the following equation: P=dQ/dt/A·C0 where dQ/dt is the permeability rate of drug appearance in the receiver compartment (µmol/s), A is the surface area of the cell monolayer (cm^2), and C0 is the initial concentration in the donor compartment (µmol/mL).
# (§7) Permeability was assessed in both directions (apical to basolateral and basolateral to apical), and the efflux ratio was calculated as: Effluxratio=Pb−a/Pa−b where Pa−b is the permeability coefficient from apical to basolateral, and Pb−a is the permeability coefficient from basolateral to apical.
# [4] = R14 permeability in the Caco-2 cell culture model; type: in vitro ADME; conditions: human, Caco-2, R14 10 µM
# Procedure: as §2, §3, §4, §5, §6, §7
# MDA-MB-231 tumor = test system: MDA-MB-231 tumor; set-up: method as in PMID 42013846; conditions: oral R14 vs vehicle controls; cited from earlier work
# [5] = set-up: method as in PMID 36924633; conditions: mouse whole blood stored at −70 °C; cited from earlier work
# [6] = Pharmacokinetics of R14 in rats after i.v. and oral dose; type: in vivo, Sprague Dawley rats; conditions: for AUC(0-t): read-out: AUC0→10h
# Procedure: This study was carried out in accordance with the recommendation of the Guidelines for the Care and Use of Laboratory Animals (2011) and was in compliance with the ARRIVE guidelines. All animal experiments were conducted with prior approval from the Texas Southern University Institutional Animal Care and Use Committee (IACUC). Male adult SD rats (250–350 g) were purchased from Envigo RMS (Indianapolis, IN, USA) and were housed in standard rodent cages (3–4 rats per cage) with a 12 h light/dark cycle at 22–24 °C and had free access to standard laboratory rodent chow (7012 Teklad mouse/rat diet from Envego, Inc., Indianapolis, IN, USA) and water. Rats were acclimated to the animal care facility for at least 7 days before the start of each experiment. Only male rats were used in the present study to minimize pharmacokinetic variations due to sex differences.
# To facilitate the timed withdrawal of multiple blood samples from each animal, the right jugular vein of each animal was cannulated one day prior to drug administration. The cannulas were flushed daily with 0.5 mL of sterile heparinized saline (100 units/mL). Under anesthesia using a cocktail of ketamine/acetopromazine/xylazine (50:3.3:3.3 mg/kg ip), silicone elastomer tubing (0.02 × 0.037 in) was inserted into the jugular vein, secured with a silk suture, and exteriorized in the dorsal intrascapular area. The surgical incision was prophylactically treated with nitrofurazone wound powder and closed with surgical staples.
# as §1
# For the intravenous (i.v.) pharmacokinetics of R14, another group of jugular vein cannulated rats received an i.v. administered 5 mg/kg R14 dose. Serial blood samples (0.15 mL each) were collected from the cannulated jugular vein into heparin-coating tubes before dosing and at 2 min, 5 min, 10 min, 30 min, 45 min, 1 h, 2 h, 4 h, 6 h, 8 h, 10 h, and 24 h time points post-dose. Plasma was processed similarly, with aliquots prepared for both R14 quantification and metabolite analysis, and urine collected over 24 h and stored at −80 °C.
# The urine sample (10 μL each) was pre-mixed with 30 µL of derivatization agent (also acting as stabilizing agent). Pre-mixed plasma samples (with the derivation agent before storage) or the pre-mixed urine samples were added to 360 µL of acetonitrile (containing 2.5 ng/mL warfarin), vortexed for 2 min, and then centrifuged for 20 min. The supernatant (80 μL) was mixed with 160 µL of acetonitrile containing 0.5% formic acid, and finally, 100 μL aliquot of the mixture was transferred to a sample vial for UHPLC-MS/MS analysis.
# R14 quantification via monitoring R14 bisulfite was conducted using a previously published method on a 6500+ Triple Quad UHPLC-MS/MS System (SCIEX, Framingham, MA, USA) coupled with a Synergi Fusion-RP column (50 × 2 mm, 4 µm, 80 Å, Phenomenex Inc., Torrance, CA, USA). […]
# [7] = male, Sprague Dawley, iv, i.v. 5 mg/kg, rat plasma, n = 3, mean ± SD
# [8] = male, Sprague Dawley, rat, plasma, iv, i.v. 5 mg/kg, rats, n = 3, mean ± SD
# [9] = male, Sprague Dawley, rat, plasma, oral 50 mg/kg, rats, n = 3, mean ± SD
# [10] = male, Sprague Dawley, oral 50 mg/kg, rat plasma, n = 3, mean ± SD
smiles,measurement,setting,value
Cc1ccccc1N1Sc2cc(F)ccc2C1O (stereo not drawn) [Metabolite M1],Source P (detected in plasma),[1]; 50 mg/kg,low concentrations and relatively low levels and √
same,Source U (detected in urine),[1],undetectable
same,Source B (detected in whole blood incubation),[2],sole major metabolic product and √
"Cc1ccccc1-n1sc2cc(F)ccc2c1=O [Metabolite R14, 6-Fluoro-2-(2-methylphenyl)-1,2-benzothiazol-3(2H)-one]",Solubility in DMSO,[3]; DMSO,25 mg/mL
same,Water solubility,[3]; water,poorly water soluble
same,Cumulative excretion in 24 h urine as fraction of total amount of R14 and its metabolites,[1],Less than 1%
same,Permeability assessment,Caco-2 cell monolayer,moderate permeability
same,"Papp A→B at 4 h, 10 µM","[4]; n = 3, read-out: Pa−b (apical-to-basolateral permeability)",6.39 ± 0.6 ×10⁻⁶ cm/s
same,"Papp B→A at 4 h, 10 µM","[4]; n = 3, read-out: Pb−a (basolateral-to-apical permeability)",6.41 ± 1.15 ×10⁻⁶ cm/s
same,"efflux ratio at 4 h, 10 µM",[4]; read-out: Efflux ratio (Pb−a/Pa−b),1.12
same,Survival,MDA-MB-231 tumor,improved survival
same,Tumor size,MDA-MB-231 tumor,significantly reduced
same,Time to complete disappearance from whole blood samples,[5],≤ 10 days
same,AUC(0-inf),[6]; [7],1810 ± 444 ng·h/mL
same,AUC(0-t),[6]; [7],1580 ± 477 ng·h/mL
same,MRT,[6]; [8],1.63 ± 0.39 h
same,half-life,[6]; [8],5.39 ± 0.94 h
same,clearance,"[6]; male, Sprague Dawley, rat, plasma, iv, i.v. 5 mg/kg, rats, n = 3, mean ± SD, read-out: CL (systemic clearance) (converted)",43.8 mL/min/kg
same,Vd,"[6]; male, Sprague Dawley, rat, plasma, iv, i.v. 5 mg/kg, rats, n = 3, mean ± SD, read-out: Vd (volume of distribution)",20.7 ± 6.11 L/kg
same,bioavailability,"[6]; male, Sprague Dawley, rat, plasma, oral, 50 mg/kg, oral 50 mg/kg vs i.v. 5 mg/kg, rats, read-out: F% (absolute oral bioavailability)",13.4%
same,MRT,[6]; [9],2.82 ± 0.5 h
same,half-life,[6]; [9],2.99 ± 1.41 h
same,CL/F,"[6]; male, Sprague Dawley, rat, plasma, oral 50 mg/kg, rats, n = 3, mean ± SD, read-out: CL/F (apparent clearance) (converted)",367 mL/min/kg
same,Vd/F,"[6]; male, Sprague Dawley, rat, plasma, oral 50 mg/kg, rats, n = 3, mean ± SD, read-out: Vd/F (apparent volume of distribution)",93.3 ± 38.1 L/kg
same,Tmax,"[6]; male, Sprague Dawley, oral 50 mg/kg, rat plasma, n = 3",0.5 h
same,AUC(0-inf),[6]; [10],2430 ± 344 ng·h/mL
same,Cmax,[6]; [10],1150 ± 201 ng/mL
same,AUC(0-t),[6]; [10],2080 ± 255 ng·h/mL
same,F% (absolute oral bioavailability),"[6]; oral 50 mg/kg vs i.v. 5 mg/kg, rats",13.38%
Cc1ccccc1N1Sc2cc(F)ccc2C1OC1OC(C(=O)O)C(O)C(O)C1O (stereo not drawn) [Metabolite M4],Source P (detected in plasma),[1],√
same,Apparent AUC in plasma relative to total AUC of R14 and all identified metabolites,"[1]; rat plasma, peak area as relative concentration",22.3%
same,Cumulative excretion in 24 h urine as fraction of total amount of R14 and its metabolites,[1],48.4%
same,Source U (detected in urine),[1],√

# From paper PMC12389022, “Drug Metabolism and Pharmacokinetic Evaluation of a Novel RNase H2 Inhibitor for the Treatment of Triple-Negative Breast Cancer” (Pharmaceutics, 2025)
